Test results from paper PMC6199279, “Design of Peptoid-peptide Macrocycles to Inhibit the β-catenin TCF Interaction in Prostate Cancer” (Nature Communications, 2018).
Read-outs that look alike come from different tables or passages of the source. Numbered stars: 1 amine (or outer) side, 2 acyl side, 3 side chain; on linkers, the order of the positions; unused ones are H or OH. Square brackets hold non-standard residues; d marks the D form. Peptide text beside a SMILES is read from it. N(2-(2-PhOPh)Et)Gly = O=C(O)CNCCc1ccccc1Oc1ccccc1; Gly(N-3,5-(OMe)2-Ph) = COc1cc(NCC(=O)O)cc(OC)c1; X1 = COc1ccc([C@H](C)N(CC(=O)[*:2])[*:1])cc1; N((CH2)3OiPr)Gly = CC(C)OCCCNCC(=O)O

How the values were obtained:
LNCaP-abl spheroids = tested on: LNCaP-abl spheroids
Method: To evaluate the impact of the compounds under 3D cell culture conditions thought to be more representative of tumors, we grew LNCaP-abl cells in low attachment plates. The effects on spheroid formation and growth were evaluated following treatment with vehicle, 13, or linear 13 administered at the time of seeding at low cell density in a 384-well plate. In a separate experiment, to test the impact on pre-formed spheroids, cells were treated 5 days after initial seeding. Spheroids from both experiments were grown for 22 days, with compound refreshed on days 5, 9, 13, 16, and 20. […] PrestoBlue was used to measure cell viability on day 22 (Fig. 5b). […] Figure 5c–f depicts spheroid area over time based on size measurements from the images taken throughout the experiment.
Scale bar represents 400 μm. b End point viability measurements taken on day 22 using PrestoBlue. c–f Time course of spheroid areas calculated from images taken throughout the experiment.
LNCaP-abl cells were seeded into 384-well ultra-low attachment plates (Corning), 1000 cells/well. Varying concentrations of compound were added either on the same day as seeding or on day 5. Media was changed every 3–4 days using a Biotek automated media exchanger. Images were taken using an ArraySca VTI (Cellomics) on days 5, 9, 13, 16, 20, and 22. Images were analyzed for spheroid area with the HCS Studio Cellomics Scan Version 6.6.0 (Thermo) software. A final viability measurement was taken on day 22 using PrestoBlue reagent (Thermo).

[1] = biological target: T1, β-catenin:TCF4 protein interaction (Homo sapiens, UniProt P35222); assay: Co-immunoprecipitation of myc-TCF4 and endogenous β-catenin in HEK293 cells; format: cell-based; settings: HEK293 cells with myc-TCF4, 10 µM, 48 h, vs vehicle
T1 construct: host or cells: HEK293
T1 sequence (P35222 2-781 limits assumed): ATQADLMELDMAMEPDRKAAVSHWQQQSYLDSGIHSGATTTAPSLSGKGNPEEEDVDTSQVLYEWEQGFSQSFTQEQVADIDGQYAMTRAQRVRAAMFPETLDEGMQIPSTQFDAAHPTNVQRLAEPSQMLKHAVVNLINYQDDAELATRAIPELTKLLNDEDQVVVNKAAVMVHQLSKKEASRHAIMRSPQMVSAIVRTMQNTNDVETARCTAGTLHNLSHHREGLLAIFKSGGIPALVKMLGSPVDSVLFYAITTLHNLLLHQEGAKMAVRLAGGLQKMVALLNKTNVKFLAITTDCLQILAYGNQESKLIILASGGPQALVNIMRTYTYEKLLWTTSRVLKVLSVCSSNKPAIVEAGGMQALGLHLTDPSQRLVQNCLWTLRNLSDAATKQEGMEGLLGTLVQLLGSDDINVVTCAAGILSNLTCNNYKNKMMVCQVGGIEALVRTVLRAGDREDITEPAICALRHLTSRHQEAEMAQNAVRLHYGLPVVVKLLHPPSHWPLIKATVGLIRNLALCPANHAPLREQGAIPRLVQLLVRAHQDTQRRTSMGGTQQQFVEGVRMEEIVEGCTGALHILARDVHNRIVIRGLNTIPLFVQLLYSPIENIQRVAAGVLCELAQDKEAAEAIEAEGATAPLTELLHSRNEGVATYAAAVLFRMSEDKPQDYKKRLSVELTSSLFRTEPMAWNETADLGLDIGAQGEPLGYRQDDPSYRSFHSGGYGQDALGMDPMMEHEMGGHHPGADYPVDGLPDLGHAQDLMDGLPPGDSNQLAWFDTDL
Method: We next characterized the dose response curves for compound 13 in the Wnt and AR luciferase reporters. The linear version of 13 (linear 13: NH2-|N-mpp, N-dmp, N-ipp, N-Smpe, N-Smpe, D-Ala|-OH) was used as a control compound. […] To test direct binding, we pre-formed dynamic light scattering (DLS) with β-catenin in the presence of vehicle, compound 13, and α-cyclodextrin. […] HEK293 cells were transiently transfected with a plasmid expressing full length, myc-tagged TCF4. After 48 h treatment with either vehicle (DMSO) or 10 µM 13, cells were lysed and myc-TCF4 protein was immunoprecipitated.
LNCaP-abl and LNCaP-95 cells were cultured in indicator free RPMI 1640 media (Life) supplemented with 10% charcoal stripped FBS, 1% pennicillin/streptomycin, and 1% L-Glutamine. HEK-293 Cells were cultured in DMEM media (Life) supplemented with 10%FBS and 1% pennicillin/streptomycin. A549 and U2OS cells were cultured in RPMI 1640 media (Life) and McCoy’s 5 A modified media (Life), respectively, both supplemented with 10%FBS and 1% pennicillin/streptomycin. […] Both were measured using the ONE-Glo detection kit (Promega) and data is standardized to CellTiter-Fluor (Promega) viability readings to account for potential variations in well to well cell number. […] Total protein concentration in cell lysates were determined using Pierce Rapid Gold BCA Protein Assay Kit (Thermo). […]

Compound: COc1ccc([C@H](C)N2CC(=O)N[C@H](C)C(=O)N(CCc3ccccc3Oc3ccccc3)CC(=O)N(c3cc(OC)cc(OC)c3)CC(=O)N(CCCOC(C)C)CC(=O)N([C@@H](C)c3ccc(OC)cc3)CC2=O)cc1 [Compound 13] (cyclo([dA][N(2-(2-PhOPh)Et)Gly][Gly(N-3,5-(OMe)2-Ph)][N((CH2)3OiPr)Gly][X1][X1]))
- Spheroid growth, compound added day 0 (LNCaP-abl spheroids; 0.5 µM): slowed growth
- Spheroid formation, compound added day 0 (LNCaP-abl spheroids; 20 µM, 10 µM, 5 µM, 2 µM and 1 µM): prevented spheroid formation
- Growth of pre-formed spheroids, treatment started day 5 (LNCaP-abl spheroids; at or above 2 µM): stalled the growth of pre-formed spheroids
- Spheroid growth, low concentrations (LNCaP-abl spheroids; between 0.001 µM and 0.1 µM): little effect
- IC50 (LNCaP-abl spheroids; read-out: IC50 spheroid proliferation, treatment started Day 0, PrestoBlue viability on day 22, compound added at seeding): 694 nM
- IC50 (LNCaP-abl spheroids; read-out: IC50 spheroid proliferation, treatment started Day 5, PrestoBlue viability on day 22, pre-formed spheroids): 1340 nM
- β-catenin:TCF association (co-immunoprecipitated β-catenin) [1]: decreased
